According to patent US20230167088A1, “1-PYRAZINYLPYRAZOLYL-3-OXYALKYL ACIDS AND THEIR DERIVATIVES, AND THEIR USE FOR CONTROL OF UNDESIRED PLANT GROWTH” (BAYER AKTIENGESELLSCHAFT, priority 2020, published 2023):

Tests used:
VERPE = assay: Herbicidal post-emergence action 1a (greenhouse pots, visual rating); assay type: in vivo, Veronica persica; conditions: visual rating about 3 weeks after treatment
Procedure, shortened: (§1)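 Visual scoring versus untreated plants (100% = plants dead, 0% = as control) followed roughly 3 weeks in the greenhouse after treatment. Plants grown in sandy loam pots had been sprayed on green parts at the one-leaf stage, 2–3 weeks post-sowing, with aqueous WP/EC preparations containing 0.5% additive, 600 l/ha, at 320 and/or 80 g/ha.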

ALOMY = assay: Herbicidal pre-emergence action 2a (greenhouse pots, visual scoring); assay type: in vivo, Alopecurus myosuroides; conditions: dosage 320 g/ha, visual scoring after about 3 weeks
Procedure, shortened: (§2)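 Percent effect (0% like control, 100% plants died) was scored by eye roughly 3 weeks post-application. Formulated compound went onto the soil covering freshly sown seeds in water at 600 l/ha with 0.5% additive; dose 320 g/ha and/or 80 g/ha.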

LOLRI [1] = assay: Herbicidal post-emergence action 1a (greenhouse pots, visual rating); assay type: in vivo, Lolium rigidum; conditions: rated visually about 3 weeks after treatment, 100% = plants have died, 0% = like control plants
Procedure, shortened: as §1

LOLRI [2] = assay: Herbicidal pre-emergence action 2a (greenhouse pots, visual scoring); assay type: in vivo, Lolium rigidum; conditions: dosage 320 g/ha, visual scoring after about 3 weeks vs untreated controls
Procedure, shortened: as §2

AMARE [3] = assay: as above; assay type: in vivo, Amaranthus retroflexus; conditions: dosage 320 g/ha, visual scoring after about 3 weeks vs untreated controls
Procedure, shortened: as §2

harmful plants = assay: Herbicidal post-emergence action 1a, summary across species; assay type: in vivo; conditions: Tables A1 to A15 (320 g/ha and/or 80 g/ha)
Method: a) Seeds of monocotyledonous and dicotyledonous weeds and crop plants are placed in sandy loam in plastic or organic plant pots, covered with soil and cultivated in a greenhouse under controlled growth conditions. 2 to 3 weeks after sowing, the test plants are treated at the one-leaf stage. The compounds of the invention, formulated in the form of wettable powders (WP) or as emulsion concentrates (EC), are then sprayed onto the green parts of the plants as aqueous suspension or emulsion with addition of 0.5% additive at a water application rate of 600 1/ha (converted). After the test plants have been kept in the greenhouse under optimum growth conditions for about 3 weeks, the activity of the preparations is rated visually in comparison to untreated controls. For example, 100% activity=the plants have died, 0% activity=like control plants.
Tables A1 to A15 below show the effects of selected compounds of the general formula (I) according to Tables 1 and 2 on various harmful plants and an application rate corresponding to 320 g/ha and/or 80 g/ha, which were obtained by the experimental procedure mentioned above.
For example, compound nos. I-05, I-07, I-08, I-10, I-12, I-16, I-17, I-22, I-36, I-37, I-39 and I-40 in the post-emergence method have very good action (80% to 100% herbicidal activity) against harmful plants such as Alopecurus myosuroides, Amaranthus retroflexus, Avena fatua, Lolium rigidum, Polygonum convolvulus, Setaria viridis, Veronica persica and Viola tricolor at an application rate of 0.32 kg of active substance per hectare.

AMARE [4] = assay: Herbicidal post-emergence action 1a (greenhouse pots, visual rating); assay type: in vivo, Amaranthus retroflexus; conditions: visual rating about 3 weeks after treatment
Procedure, shortened: as §1

VIOTR = assay: as above; assay type: in vivo, Viola tricolor; conditions: visual rating about 3 weeks after treatment
Procedure, shortened: as §1

ECHCG = assay: Herbicidal pre-emergence action 2a (greenhouse pots, visual scoring); assay type: in vivo, Echinochloa crus-galli; conditions: dosage 320 g/ha, visual scoring after about 3 weeks
Procedure, shortened: as §2

MATIN = assay: Herbicidal pre-emergence action 2b (doubly sown, 1280 g/ha); assay type: in vivo, Matricaria inodora; conditions: doubly sown pots, dosage 1280 g/ha, visual scoring after about 3 weeks
Procedure, shortened: (§3)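 Compounds were sprayed pre-emergence as wettable powders or emulsion concentrates onto soil covering freshly sown weed seeds, two species per pot. Percent activity was judged by eye roughly 3 weeks later versus untreated plants.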

POLCO = assay: Herbicidal post-emergence action 1a (greenhouse pots, visual rating); assay type: in vivo, Polygonum convolvulus; conditions: visual rating about 3 weeks after treatment
Procedure, shortened: as §1

STEME = assay: Herbicidal pre-emergence action 2b (doubly sown, 1280 g/ha); assay type: in vivo, Stellaria media; conditions: doubly sown pots, dosage 1280 g/ha, visual scoring after about 3 weeks
Procedure, shortened: as §3

Row | SMILES | Post-emergence action against VERPE in % (VERPE; dosage 80 g/ha) | Post-emergence action against VERPE in % (VERPE; dosage 320 g/ha) | Pre-emergence action against ALOMY in % (ALOMY) | Post-emergence action against LOLRI in % (LOLRI [1]; Dosage 80 g/ha) | Post-emergence action against LOLRI in % (LOLRI [1]; Dosage 320 g/ha) | Pre-emergence action against LOLRI in % (LOLRI [2]) | Pre-emergence action against AMARE in % (AMARE [3]) | herbicidal efficacy against harmful plants in the case of post-emergence treatment (in words) (harmful plants) | Post-emergence action against AMARE in % (AMARE [4]; dosage 80 g/ha) | Post-emergence action against AMARE in % (AMARE [4]; dosage 320 g/ha) | Post-emergence action against VIOTR in % (VIOTR; dosage 80 g/ha) | Post-emergence action against VIOTR in % (VIOTR; dosage 320 g/ha) | Pre-emergence action against ECHCG in % (ECHCG) | Pre-emergence action at 1280 g/ha against MATIN in % (MATIN) | Post-emergence action against POLCO in % (POLCO; dosage 80 g/ha) | Post-emergence action against POLCO in % (POLCO; dosage 320 g/ha) | Pre-emergence action at 1280 g/ha against STEME in % (STEME)
1 | COC(=O)COc1nn(-c2cnccn2)c(-c2ccc(F)c(F)c2)c1Br [Example I-15] | 90% | 90% | 90% | 90% | 90% | 100% | 100% | good herbicidal efficacy | 80% | 80% | 90% | 90% | 100% | – | – | – | –
2 | COC(=O)[C@@H](C)Oc1nn(-c2cnccn2)c(-c2cncc(F)c2)c1C#N [Example I-40] | – | 80% | 100% | – | 80% | 90% | 90% | good herbicidal efficacy | 80% | 90% | – | 80% | – | 100% | 80% | 80% | 100%
3 | COC(=O)[C@@H](C)Oc1nn(-c2cnccn2)c(-c2ccc(F)c(F)c2)c1Br [Example I-45] | – | 80% | 100% | 90% | 90% | 90% | 100% | good herbicidal efficacy | – | 90% | 80% | 90% | – | 100% | – | 100% | 100%
4 | COC(=O)[C@@H](C)Oc1nn(-c2cnccn2)c(-c2ccc(F)c(F)c2)c1C#N [Example I-46] | – | 80% | 100% | 90% | 90% | 100% | 100% | – | 80% | 80% | – | – | 100% | 100% | – | 100% | 100%
5 | C[C@@H](Oc1nn(-c2cnccn2)c(-c2cccc(F)c2)c1Br)C(=O)O [Example I-48] | – | – | 100% | – | – | 100% | 100% | – | – | – | – | – | 100% | 100% | – | 100% | 100%
6 | CCOC(=O)COc1nn(-c2cnccn2)c(-c2ccc(F)nc2)c1Br [Example I-52, ethyl {[4-bromo-5-(6-fluoropyridin-3-yl)-1-(pyrazin-2-yl)-1H-pyrazol-3-yl]oxy}acetate] | – | 90% | 90% | – | – | 100% | 100% | – | 90% | 80% | – | 80% | – | 90% | – | 80% | 100%
